Here are results for one compound from patent US20250032465A1, “METHODS OF TREATING CNS DISORDERS” (HANGZHOU HIGHLIGHTLL PHARMACEUTICAL CO., LTD, priority 2021, published 2025).

The target in one data set is T1, JAK2 (Homo sapiens, UniProt O60674).
T1 construct: purchased Reaction Biology Corp, Malvern, PA (contract testing)
As to the kind of experiment: JAK2 biochemical test (33P-ATP filter binding, Reaction Biology). Conditions: read-out: Inhibition of JAK2 (IC50). How it is done: The tests were conducted by Reaction Biology Corp, Malvern, PA (Anastassiadis et al. Nat Biotechnol. 2011; 29(11):1039-45). The step is briefly described as follows, using the basic reaction buffer: 20 mM Hepes (pH 7.5), 10 mM MgCl2, 1 mM EGTA, 0.02% Brij35, 0.02 mg/ml BSA, 0.1 mM Na3VO4, 2 mM DTT and 1% DMSO. The required cofactor was added to each kinase reaction respectively. Each reaction was performed according to the following reaction steps: 1) Preparing the designated substrate in the newly prepared basic reaction buffer; 2) Transferring the required cofactor to the above matrix solution; 3) Transferring the designated kinase to the substrate solution and mixing well slightly; 4) Transferring a compound of Formula (I) in DMSO to the kinase reaction mixture with Acoustic technique (Echo550; nanoliter range), culturing for 20 minutes at room temperature; 5) Introducing ^33P-ATP (specific activity: 10 μCi/μl) to the reaction mixture to trigger a reaction; 6) Culturing at room temperature and conducting a kinase reaction for 2 hours; 7) Plotting the reaction on P81 ion exchange paper; and 8) Testing the kinase activity with a filter binding assay. The results shown in Table 1 indicate that compounds of Formulae (I)-(III) are potent and selective TYK2/JAK1 inhibitors.

Data set [1] is described as follows: Brain penetration in mice. The class given is in vivo, C57BL/6 mice. Conditions: male, mouse, 30 mg/kg oral gavage, 4-hour post-dosing. How it is done:
This testing was performed to test the ability of compounds to penetrate the blood-brain-barrier in mice. The testing was performed according to the following procedure: 1) for each compound, take 3 male C57BL/6 mice with body weight of 17-18 g, formulate compound using 0.5% HPMC/water suspension at concentration of 3 mg/ml; 2) After fasting overnight, administer compound at 30 mg/kg by oral gavage; 3) Take plasma samples at 1, 2, 4 hours post-dosing; 4) At 4-hour post-dosing, also take brain tissues and cerebrospinal fluid (CSF) fluid; 5) Analyze compound concentration in plasma, brain tissue, and CSF fluid using LC-MS/MS method.

Data set [2] is described as follows: Brain penetration in rats. The class given is in vivo. Conditions: male, rat, 10 mg/kg oral gavage, 8 hour post-dosing. How it is done:
This testing was performed to test the ability of compounds to penetrate the blood-brain-barrier in rats. The testing was performed according to the following procedure: 1) For each compound, take 3 male rats with body weight of 217-228 g, formulate compound using 0.5% HPMC/water suspension at concentration of 1 mg/ml; 2) After fasting overnight, administer compound at 10 mg/kg by oral gavage; 3) Take plasma samples at 1, 2, 4, 8 hours post-dosing; 4) At 8 hour post-dosing, also take brain tissues and cerebrospinal fluid (CSF); 5) Analyze compound concentration in plasma, brain tissue, and CSF using LC-MS/MS method.

A further data set deals with MOG35-55-EAE model. As to the kind of experiment: MOG35-55 induced experimental autoimmune encephalomyelitis (MOG35-55-EAE) model. The class given is in vivo, female C57BL/6 mice. From the text: MOG-EAE is one of the most common and widely used animal models for multiple sclerosis, which is a chronic inflammatory disease in the central nervous system that is characterized by axon demyelination and degeneration. In this mouse model, animals were immunized with myelin oligodendrocyte glycoprotein (MOG) peptide in Complete Freund's Adjuvant (CFA) firstly and then boosted with Pertussis Toxin. Upon immunization, mice developed chronic inflammation in the central nervous system, which led to axon dysfunction, and associated movement disabilities and paralysis. The disease onset usually starts from Day 10 and lasts for 20-30 days. This model allows specific investigation of the neuroinflammatory signaling pathways and evaluation of the efficacy of novel anti-inflammatory therapies. […] Mortality and observed clinical signs were recorded for individual animals in detail. Body weight and disease activity index (DAI) were measured twice per week after disease induction and then every other day starting from Day 10 to the study end. The DAI was scored according to the scoring criteria: 0=normal; 1=loss of tail tone; 2=loss of tail tone and hind limb weakness; 3=severe weakness in both limbs/single limb paralysis; 4=paralysis of two or more limbs; 5=death. […] The body weights and disease score were measured by using StudyDirector™ software (version 3.1.399.19). […]

For the next data set, the system named is HT22 cells. The data set can be described thus: HT22 neuronal cell death induced by LPS activated BV2 microglia (transwell co-culture). Conditions: 1.7 μM pre-treatment of BV2, LPS 200 ng/ml, 96 h. The class given is cell-based. How it is done: This testing was performed to test the ability of compounds to alleviate the injury of HT22 cells induced by LPS activated BV2 cells. The testing was performed according to the following procedure: 1) Microglia BV2 cells were co-cultured on transwell inserts with HT22hippocampal neurons. BV2 cells were stimulated with LPS (200 ng/ml) for 96 h after treatment with a compound of Formula (II) at 1.7 μM. 2) HT22 cells were pre-treated with a compound of Formula (II) at 1.7 μM for 30 min and subsequently stimulated with LPS (200 ng/ml) for 96 h. 3) BV2 cells were treated using LPS. IL-6, TNF and MCP-1 productions were measured in cell supernatants using CBA assay.
The protective effects of a compound of Formula (II) on microglial activation-induced neuronal death were evaluated in a BV2 microglia/HT22 neuron co-culture. Following stimulation of BV2 microglia with LPS (200 ng/mL), there was a marked reduction in the viability of co-cultured HT22 cells.

The next data set relates to BV2 cells. The data set can be described thus: IL-6, TNF and MCP-1 production in LPS-stimulated BV2 cells (CBA assay). The class given is cell-based. Conditions: Mus musculus, BV-2, LPS-treated BV2 cells.
Where [3] appears, read: read-out: Inhibition of IL-6 production.
Setting [4] is: read-out: Inhibition of MCP-1 production.
The mark [5] stands for this setting: read-out: Inhibition of TNF production.

Structures are written as SMILES. “Also recorded” adds a separate entry of the source. Like-named read-outs stand apart in the source and are kept apart here. Some results are limits rather than exact numbers.

T1 sequence (O60674 whole entry): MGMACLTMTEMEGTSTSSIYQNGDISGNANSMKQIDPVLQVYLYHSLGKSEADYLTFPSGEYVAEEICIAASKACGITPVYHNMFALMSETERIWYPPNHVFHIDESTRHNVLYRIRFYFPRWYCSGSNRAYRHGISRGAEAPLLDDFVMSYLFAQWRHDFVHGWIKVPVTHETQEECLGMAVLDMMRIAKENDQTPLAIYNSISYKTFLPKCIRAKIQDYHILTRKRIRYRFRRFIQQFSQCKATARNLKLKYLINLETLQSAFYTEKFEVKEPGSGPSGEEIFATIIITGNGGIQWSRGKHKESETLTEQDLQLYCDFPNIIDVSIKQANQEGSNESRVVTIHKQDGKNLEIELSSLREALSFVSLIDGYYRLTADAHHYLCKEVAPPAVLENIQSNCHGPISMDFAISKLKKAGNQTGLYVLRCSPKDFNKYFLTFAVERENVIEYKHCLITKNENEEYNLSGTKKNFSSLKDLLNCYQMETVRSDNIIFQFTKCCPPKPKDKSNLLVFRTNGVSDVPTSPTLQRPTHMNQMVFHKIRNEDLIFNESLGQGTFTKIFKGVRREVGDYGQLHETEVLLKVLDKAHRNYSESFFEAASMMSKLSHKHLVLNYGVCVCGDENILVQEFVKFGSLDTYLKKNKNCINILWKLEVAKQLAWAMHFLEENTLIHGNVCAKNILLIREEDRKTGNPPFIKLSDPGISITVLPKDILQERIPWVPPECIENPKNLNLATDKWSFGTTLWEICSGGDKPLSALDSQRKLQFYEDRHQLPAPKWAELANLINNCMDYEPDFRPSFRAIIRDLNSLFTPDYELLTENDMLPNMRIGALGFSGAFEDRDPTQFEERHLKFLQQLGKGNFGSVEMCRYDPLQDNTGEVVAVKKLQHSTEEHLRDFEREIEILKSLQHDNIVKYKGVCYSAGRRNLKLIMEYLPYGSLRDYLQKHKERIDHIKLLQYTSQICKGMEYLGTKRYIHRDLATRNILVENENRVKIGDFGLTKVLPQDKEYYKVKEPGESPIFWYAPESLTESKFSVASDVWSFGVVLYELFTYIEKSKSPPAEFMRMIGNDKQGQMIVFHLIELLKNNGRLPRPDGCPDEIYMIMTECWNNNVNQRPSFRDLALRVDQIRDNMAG

For `Cc1nc2cnc3ccoc3c2n1[C@H]1CC[C@H](CC#N)OC1` [Formula (II)], the IC50 on JAK2 was > 100 nM. The Kp at 4 h was > 0.15 in data set [1] (C57BL/6, CSF/plasma, read-out: CSF (ng/ml)/ Plasma (ng/ml)) and > 0.3 in data set [1] (C57BL/6, brain/plasma, read-out: Brain (ng/ml)/ Plasma (ng/ml)). Also, the Kp at 8 h was > 0.15 in data set [2] (CSF/plasma, read-out: CSF (ng/ml)/ Plasma (ng/ml)) and > 0.4 in data set [2] (brain/plasma, read-out: Brain (ng/ml)/ Plasma (ng/ml)). Besides, in the data set on MOG35-55-EAE model (30 mg/kg BID oral gavage from Day 10, vs vehicle, Days 10-26), the “Disease Activity Index (DAI)” value is listed as “reduced disease activity; also recorded: lower DAI”. In the data set with MOG35-55-EAE model (30 mg/kg BID oral gavage, mice with EAE), the Body weight loss result was “significantly reduced body weight loss”. The “Toxicity to HT22 cells (neuronal cell death) from LPS stimulation of BV2 microglia” value with HT22 cells was “significantly reduced toxicity to HT22 cells; also recorded: reduced HT22 neuronal cell death”. In addition, the inhibition at 5 µM was 72.4% in the data set with BV2 cells (setting [3]), 83.3% with BV2 cells (setting [4]) and 81.2% in the data set with BV2 cells (setting [5]). For the same compound, the inhibition at 15 µM with BV2 cells (setting [3]) came to 83.6%; in the data set with BV2 cells (setting [4]), 111%; in the data set on BV2 cells (setting [5]), 118%.

In general, IC50 refers to the concentration needed to halve the response being measured. One may read the inhibition as the relative decrease from the control value, in per cent.
